Earlier results on two molecules are cited in patent publication US6586413B2, “Methods and compositions for reducing ischemic injury of the heart by administering adenosine receptor agonists and antagonists” (The United States of America as represented by the …, priority 1999, dated 2003).

The structures appear in SMILES notation.

Common to all, as to conditions: Table II; cited from earlier work
In one series the target is A2a receptor (Rattus norvegicus, UniProt P30543).
The next series concerns the target T1, A1 receptor (Rattus norvegicus, UniProt P25099).
T1 sequence (P25099 1-326): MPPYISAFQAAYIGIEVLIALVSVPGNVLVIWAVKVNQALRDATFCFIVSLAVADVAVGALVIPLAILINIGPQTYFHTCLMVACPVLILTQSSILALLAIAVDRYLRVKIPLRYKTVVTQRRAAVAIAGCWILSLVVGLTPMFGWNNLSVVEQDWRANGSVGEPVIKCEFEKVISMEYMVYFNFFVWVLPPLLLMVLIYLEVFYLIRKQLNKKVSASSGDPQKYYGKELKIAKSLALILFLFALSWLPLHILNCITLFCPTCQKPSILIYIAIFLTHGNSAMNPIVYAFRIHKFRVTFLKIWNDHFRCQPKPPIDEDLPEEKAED

The target in the next series is A3 receptor.

Chain of A2a receptor (P30543 whole entry): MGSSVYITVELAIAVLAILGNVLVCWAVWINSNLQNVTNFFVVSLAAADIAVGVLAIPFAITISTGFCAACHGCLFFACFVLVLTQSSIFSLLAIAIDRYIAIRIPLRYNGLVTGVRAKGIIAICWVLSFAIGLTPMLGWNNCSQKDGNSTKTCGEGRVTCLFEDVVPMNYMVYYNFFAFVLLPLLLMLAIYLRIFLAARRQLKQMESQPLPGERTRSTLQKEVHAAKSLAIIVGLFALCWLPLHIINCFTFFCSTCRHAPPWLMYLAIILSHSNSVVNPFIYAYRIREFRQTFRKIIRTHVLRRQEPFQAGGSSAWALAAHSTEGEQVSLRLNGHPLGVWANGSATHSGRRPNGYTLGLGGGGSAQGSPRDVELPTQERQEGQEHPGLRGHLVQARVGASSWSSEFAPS

With `CCNC(=O)C1OC(n2cnc3c(NC(=O)Nc4ccccc4C(F)(F)F)ncnc32)C(O)C1O` (stereo not drawn) [Compound 4d, N^6-((2-trifluoromethyl)carbamoyl)adenosine-5′-uronamide], the Ki (usually the equilibrium dissociation constant of an inhibitor or competing ligand from its target) on A2a receptor was over 10000 nM; on A1 receptor, 384 nM; at A3 receptor, 54 nM.
With `CNC(=O)C1OC(n2cnc3c(NOc4ccccc4)ncnc32)C(O)C1O` (stereo not drawn) [Compound 11, 6-(O-Phenylhydroxylamino)purine-9-beta-ribofuranoside-5′-N-methyluronamide], the Ki at A2a receptor was 66300 nM; at A1 receptor, 2060 nM; at A3 receptor, 1340 nM.
